We go through 19 molecules from patent US20250154163A1, “Pyrimidinone-Containing 17-Beta-Hydroxysteroid Dehydrogenase Type 13 Inhibitors” (ENANTA PHARMACEUTICALS, INC., priority 2023, published 2025).

Structures can show the parent of a compound that is named as a salt.

The target in experiment [1] is T1, Recombinant human 17β-HSD13 (Homo sapiens, UniProt Q7Z5P4).
T1 construct: host or cells: Sf9 insect cells
T1 sequence (Q7Z5P4 20-300): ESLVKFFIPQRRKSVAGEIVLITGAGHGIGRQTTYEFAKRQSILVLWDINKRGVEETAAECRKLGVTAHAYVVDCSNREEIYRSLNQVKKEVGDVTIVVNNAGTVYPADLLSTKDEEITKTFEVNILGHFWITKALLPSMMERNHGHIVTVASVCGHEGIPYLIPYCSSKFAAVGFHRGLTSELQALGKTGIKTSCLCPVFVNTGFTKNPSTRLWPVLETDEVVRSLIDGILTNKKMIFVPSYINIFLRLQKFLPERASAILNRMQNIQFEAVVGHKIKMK
Description: 17β-HSD13 rapid-fire mass spectrometry assay (RF/MS assay). The class given is biochemical. The settings on record: inhibition of 17β-HSD13, RF/MS assay; HSD17B13 80 nM, LTB4 10 μM, NAD+ 0.5 mM, RT 3 h. An excerpt:
17(3-HSD13 rapid-fire mass spectrometry assay (RF/MS assay). Recombinant human 17β-HSD13 was expressed and purified from sf9 cells at Charles River Labs (Saffron Walden, UK). Leukotriene B4 (Catalog #71160-24-2) and 12-oxoleukotriene B4 (Catalog #20140) were purchased from Cayman Chemicals (Ann Arbor, MI). NAD+ (Catalog #N8285), BSA (Catalog #A7030), DMSO (Catalog #D2650), and Tween-20 (Catalog #11332465001) were purchased from Sigma (St. Louis, MO). Formic acid (Catalog #28905) was from ThermoFisher Scientific and 384 deep well PP microplates (Catalog #784261) were from Greiner Bio-One. In a typical IC50 assay performed in a 384w PP microplate, test compounds (0-100 μM) were incubated with HSD17B13 (80 nM), LTB4 (10 μM), and NAD^+ (0.5 mM) in 10 μL assay buffer (20 mM Tris (pH 7.5), BSA (0.005%), and Tween-20 (0.01%)) at RT for 3 h. The assays were quenched by adding 20 μL of 0.15% aqueous formic acid and the plates were frozen at −80° C. RF/MS analysis was performed at PureHoney Technologies (Billerica, MA) on a RapidFire RF300 system (Agilent Technologies, Inc.) coupled to an API 4000 triple quadrupole mass spectrometer (Sciex) equipped with Agilent RapidFire cartridge type A (C4). The mobile phase was 0.09% formic acid and 0.01% trifluoracetic acid in water (Buffer A) and 0.09% formic acid and 0.01% trifluoracetic acid in 80% aqueous acetonitrile (Buffer B). The RapidFire method conditions were the following: 250 ms aspirate, 3000 ms load/desalt, 4000 ms elute, and 500 ms re-equilibrate. RF-MS/MS was performed in negative polarity (−4500 V), the source temperature was 650° C., and gas 1 and gas 2 settings for nitrogen were set to 50. The curtain gas and collision gas were also nitrogen and were set to 20 and 12, respectively. Leukotriene B4 (335.3) and 12-oxoLeukotriene B4 (333.3) SRM transitions were optimized with Discovery Quant software and extracted ion counts for these analytes were determined.
Data Analysis. 17β-HSD13 enzyme activity was measured as percent conversion of extracted ion counts and normalized to high and low controls to determine percent residual activity at various concentrations of test compounds. Data was fitted to normalized activity (variable slope) versus concentration fit in GraphPad Prism 7 to determine IC50. All experiments were run in duplicates.
By using the above method, the inhibition of 17β-HSD13 was evaluated for the compounds of Formula (I). IC50 ranges are as follows: A is <0.1 μM; B is 0.1 μM-1.0 μM; C is 1.0 μM-10 μm; and D is >10 μM.

Experiment [2] concerns the target T2, human HSD17β13 (stable HEK293T cell line overexpressing human HSD17β13) (Homo sapiens, UniProt Q7Z5P4).
T2 construct: expressed in transfected cells
T2 sequence (Q7Z5P4 20-300): T1 sequence (Q7Z5P4 20-300)
Description: HSD17β13 inhibitor cell-based screening assay (conversion of estradiol-d2 to estrone-d2 by RF-MS). The settings on record: conversion of estradiol-d2 to estrone-d2 after 24 hours. A digest of the protocol:
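Cellular IC50 is based on 24-h conversion of estradiol-d2 (5 μM final) to estrone-d2, measured by RF-MS in acetonitrile-precipitated supernatants. Assay uses human HSD17β13-overexpressing HEK293T cells (7.5E3/well, 1% charcoal/dextran FBS MEM), with compounds dosed as a 9-point 1:3 series to 10 μM final. ATPlite luminescence on overexpressing and parent lines measured viability.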

Take `COc1ccc(-c2nc3sc4c(O)c(Cl)cc(Cl)c4c3c(=O)n2Cc2cnco2)c(C2CC2)c1` [Example 18, 5,7-dichloro-2-(2-cyclopropyl-4-methoxyphenyl)-8-hydroxy-3-(oxazol-5-ylmethyl)benzo[4,5]thieno[2,3-d]pyrimidin-4(3H)-one]: the IC50 lay within 100 to 1000 nM in experiment [1] and 100 to 500 nM in experiment [2].
The matching figures for `COc1cc(C2CC2)c(-c2nc3sc4c(O)c(Cl)cc(Cl)c4c3c(=O)n2Cc2cnco2)cc1Cl` [Example 19, 5,7-dichloro-2-(5-chloro-2-cyclopropyl-4-methoxyphenyl)-8-hydroxy-3-(oxazol-5-ylmethyl)benzo[4,5]thieno[2,3-d]pyrimidin-4(3H)-one]: 100 to 1000 nM and 100 to 500 nM.
On the same counts, the results for `COc1ccc(-c2nc3sc4c(OCCO)cccc4c3c(=O)n2Cc2cnco2)c(C2CC2)c1` [Example 20, 2-(2-cyclopropyl-4-methoxyphenyl)-8-(2-hydroxyethoxy)-3-(oxazol-5-ylmethyl)benzo[4,5]thieno[2,3-d]pyrimidin-4(3H)-one] are above 10000 nM and 1000 to 100000 nM.
Consider `C=CCc1ccc2c(sc3nc(-c4ccc(OC)cc4C4CC4)n(Cc4cnco4)c(=O)c32)c1O` [Example 21, 7-allyl-2-(2-cyclopropyl-4-methoxyphenyl)-8-hydroxy-3-(oxazol-5-ylmethyl)benzo[4,5]thieno[2,3-d]pyrimidin-4(3H)-one], for which the results for the IC50 in experiment [1] and in experiment [2] were 100 to 1000 nM and 1000 to 100000 nM, respectively.
The matching figures for `CCCc1ccc2c(sc3nc(-c4ccc(OC)cc4C4CC4)n(Cc4cnco4)c(=O)c32)c1O` [Example 22, 2-(2-cyclopropyl-4-methoxyphenyl)-8-hydroxy-3-(oxazol-5-ylmethyl)-7-propylbenzo[4,5]thieno[2,3-d]pyrimidin-4(3H)-one]: 1000 to 10000 nM and 1000 to 100000 nM.
In the case of `COc1ccc(-c2nc3sc4c(OS(=O)(=O)O)cccc4c3c(=O)n2Cc2cnco2)c(C2CC2)c1` [Example 23, 2-(2-cyclopropyl-4-methoxyphenyl)-3-(oxazol-5-ylmethyl)-4-oxo-3,4-dihydrobenzo[4,5]thieno[2,3-d]pyrimidin-8-yl hydrogen sulfate], the values for the IC50 in experiment [1] and in experiment [2] were 100 to 1000 nM and 1000 to 100000 nM, respectively.
For `COc1ccc(-c2nc3sc4c(O)c(Br)ccc4c3c(=O)n2Cc2cnco2)c(C2CC2)c1` [Example 24, 7-bromo-2-(2-cyclopropyl-4-methoxyphenyl)-8-hydroxy-3-(oxazol-5-ylmethyl)benzo[4,5]thieno[2,3-d]pyrimidin-4(3H)-one], the IC50 in experiment [1] and in experiment [2] was below 100 nM each time.
`COc1ccc(-c2nc3sc4c(O)cccc4c3c(=O)n2Cc2ocnc2F)c(C2CC2)c1` [Example 25, 2-(2-cyclopropyl-4-methoxyphenyl)-3-((4-fluorooxazol-5-yl)methyl)-8-hydroxybenzo[4,5]thieno[2,3-d]pyrimidin-4(3H)-one]: the IC50 in experiment [1] was below 100 nM; in experiment [2] it was 100 to 500 nM.
On the same counts, the results for `COc1ccc(-c2nc3sc4c(O)c(N)ccc4c3c(=O)n2Cc2cnco2)c(C2CC2)c1` [Example 28, 7-amino-2-(2-cyclopropyl-4-methoxyphenyl)-8-hydroxy-3-(oxazol-5-ylmethyl)benzo[4,5]thieno[2,3-d]pyrimidin-4(3H)-one] are 100 to 1000 nM and 1000 to 100000 nM.
The matching figures for `COc1ccc(-c2nc3sc4c(ccc5[nH]c(=O)oc54)c3c(=O)n2Cc2cnco2)c(C2CC2)c1` [Example 29, 8-(2-cyclopropyl-4-methoxyphenyl)-7-(oxazol-5-ylmethyl)-3,7-dihydrooxazolo[5″,4″:3′,4′]benzo[1′,2′:4,5]thieno[2,3-d]pyrimidine-2,6-dione]: above 10000 nM and 500 to 1000 nM.
On the same counts, the results for `COc1ccc(-c2nc3sc4c(ccc5[nH]c(=O)[nH]c54)c3c(=O)n2Cc2cnco2)c(C2CC2)c1` [Example 30, 8-(2-cyclopropyl-4-methoxyphenyl)-7-(oxazol-5-ylmethyl)-3,7-dihydro-1H-imidazo[4″,5″:3′,4′]benzo[1′,2′:4,5]thieno[2,3-d]pyrimidine-2,6-dione] are above 10000 nM and 1000 to 100000 nM.
`COc1ccc(-c2nc3sc4c(O)c(C)ccc4c3c(=O)n2Cc2cnco2)c(C2CC2)c1` [Example 32, 2-(2-cyclopropyl-4-methoxyphenyl)-8-hydroxy-7-methyl-3-(oxazol-5-ylmethyl)benzo[4,5]thieno[2,3-d]pyrimidin-4(3H)-one]: the half-maximal inhibitory concentration (IC50) is below 100 nM in experiment [1] and 100 to 500 nM in experiment [2].
The matching figures for `COc1ccc(-c2nc3sc4cc(O)ccc4c3c(=O)n2Cc2cnco2)c(C2CC2)c1` [Example 36, 2-(2-cyclopropyl-4-methoxyphenyl)-7-hydroxy-3-(oxazol-5-ylmethyl)benzo[4,5]thieno[2,3-d]pyrimidin-4(3H)-one]: above 10000 nM and 1000 to 100000 nM.
Consider `COc1ccc(-c2nc3sc4c(O)c(Cl)ccc4c3c(=O)n2Cc2cc(C)no2)c(C2CC2)c1` [Example 39, 7-chloro-2-(2-cyclopropyl-4-methoxyphenyl)-8-hydroxy-3-((3-methylisoxazol-5-yl)methyl)benzo[4,5]thieno[2,3-d]pyrimidin-4(3H)-one], for which the IC50 in experiment [1] and in experiment [2] was below 100 nM in each case.
Take `O=c1c2c(nc(-c3ccc(F)cc3C3CC3)n1Cc1cc(C(F)(F)F)no1)sc1c(O)c(Cl)ccc12` [Example 40, 7-chloro-2-(2-cyclopropyl-4-fluorophenyl)-8-hydroxy-3-((3-(trifluoromethyl)isoxazol-5-yl)methyl)benzo[4,5]thieno[2,3-d]pyrimidin-4(3H)-one]: the IC50 in experiment [1] and in experiment [2] was below 100 nM throughout.
For `CCc1ncc(Cn2c(-c3ccc(OC)cc3C3CC3)nc3sc4c(O)c(Cl)ccc4c3c2=O)s1` [Example 41, 7-chloro-2-(2-cyclopropyl-4-methoxyphenyl)-3-((2-ethylthiazol-5-yl)methyl)-8-hydroxybenzo[4,5]thieno[2,3-d]pyrimidin-4(3H)-one], the IC50 in experiment [1] and in experiment [2] was below 100 nM in each case.
As for `O=c1c2c(nc(-c3ccc(F)cc3C3CC3)n1Cc1cnco1)sc1c(O)c(Cl)ccc12` [Example 42, 7-chloro-2-(2-cyclopropyl-4-fluorophenyl)-8-hydroxy-3-(oxazol-5-ylmethyl)benzo[4,5]thieno[2,3-d]pyrimidin-4(3H)-one], the IC50 in experiment [1] and in experiment [2] was below 100 nM in each case.
Take `Cc1cc(Cn2c(-c3ccc(F)cc3C3CC3)nc3sc4c(O)c(Cl)ccc4c3c2=O)on1` [Example 43, 7-chloro-2-(2-cyclopropyl-4-fluorophenyl)-8-hydroxy-3-((3-methylisoxazol-5-yl)methyl)benzo[4,5]thieno[2,3-d]pyrimidin-4(3H)-one]: the IC50 in experiment [1] and in experiment [2] was below 100 nM throughout.
Consider `Cc1ncc(Cn2c(-c3ccc(F)cc3C3CC3)nc3sc4c(O)c(Cl)ccc4c3c2=O)o1` [Example 44, 7-chloro-2-(2-cyclopropyl-4-fluorophenyl)-8-hydroxy-3-((2-methyloxazol-5-yl)methyl)benzo[4,5]thieno[2,3-d]pyrimidin-4(3H)-one], for which the IC50 in experiment [1] and in experiment [2] was below 100 nM each time.
